Target: Integrin alpha-V/beta-3 (Homo sapiens, UniProt P05106+P06756)
Experiment: Inhibition of [125I]echistatin binding to integrin alphaVbeta3 receptor

Sequence of Integrin alpha-V/beta-3 (P05106 27-788 limits assumed): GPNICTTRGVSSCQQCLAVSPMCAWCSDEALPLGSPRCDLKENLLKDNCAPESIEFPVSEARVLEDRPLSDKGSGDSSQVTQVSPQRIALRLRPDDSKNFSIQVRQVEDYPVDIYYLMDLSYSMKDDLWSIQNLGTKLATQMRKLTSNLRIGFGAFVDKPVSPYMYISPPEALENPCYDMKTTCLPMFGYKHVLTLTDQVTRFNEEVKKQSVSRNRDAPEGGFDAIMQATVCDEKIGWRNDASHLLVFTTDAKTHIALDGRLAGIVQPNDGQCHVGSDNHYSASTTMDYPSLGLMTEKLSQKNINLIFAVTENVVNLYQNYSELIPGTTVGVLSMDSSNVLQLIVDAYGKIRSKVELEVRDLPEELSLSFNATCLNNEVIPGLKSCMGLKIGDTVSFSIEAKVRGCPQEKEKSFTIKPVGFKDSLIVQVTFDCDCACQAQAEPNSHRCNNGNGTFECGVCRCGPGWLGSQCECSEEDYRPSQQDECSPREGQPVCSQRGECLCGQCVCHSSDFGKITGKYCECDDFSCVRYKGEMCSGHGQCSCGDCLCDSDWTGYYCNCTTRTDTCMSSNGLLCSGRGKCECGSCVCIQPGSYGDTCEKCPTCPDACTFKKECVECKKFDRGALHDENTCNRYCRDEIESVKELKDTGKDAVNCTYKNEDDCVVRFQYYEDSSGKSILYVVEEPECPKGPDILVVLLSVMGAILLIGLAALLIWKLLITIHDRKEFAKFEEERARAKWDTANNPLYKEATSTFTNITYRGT
Sequence of Integrin alpha-V/beta-3 (P06756 31-889 limits assumed): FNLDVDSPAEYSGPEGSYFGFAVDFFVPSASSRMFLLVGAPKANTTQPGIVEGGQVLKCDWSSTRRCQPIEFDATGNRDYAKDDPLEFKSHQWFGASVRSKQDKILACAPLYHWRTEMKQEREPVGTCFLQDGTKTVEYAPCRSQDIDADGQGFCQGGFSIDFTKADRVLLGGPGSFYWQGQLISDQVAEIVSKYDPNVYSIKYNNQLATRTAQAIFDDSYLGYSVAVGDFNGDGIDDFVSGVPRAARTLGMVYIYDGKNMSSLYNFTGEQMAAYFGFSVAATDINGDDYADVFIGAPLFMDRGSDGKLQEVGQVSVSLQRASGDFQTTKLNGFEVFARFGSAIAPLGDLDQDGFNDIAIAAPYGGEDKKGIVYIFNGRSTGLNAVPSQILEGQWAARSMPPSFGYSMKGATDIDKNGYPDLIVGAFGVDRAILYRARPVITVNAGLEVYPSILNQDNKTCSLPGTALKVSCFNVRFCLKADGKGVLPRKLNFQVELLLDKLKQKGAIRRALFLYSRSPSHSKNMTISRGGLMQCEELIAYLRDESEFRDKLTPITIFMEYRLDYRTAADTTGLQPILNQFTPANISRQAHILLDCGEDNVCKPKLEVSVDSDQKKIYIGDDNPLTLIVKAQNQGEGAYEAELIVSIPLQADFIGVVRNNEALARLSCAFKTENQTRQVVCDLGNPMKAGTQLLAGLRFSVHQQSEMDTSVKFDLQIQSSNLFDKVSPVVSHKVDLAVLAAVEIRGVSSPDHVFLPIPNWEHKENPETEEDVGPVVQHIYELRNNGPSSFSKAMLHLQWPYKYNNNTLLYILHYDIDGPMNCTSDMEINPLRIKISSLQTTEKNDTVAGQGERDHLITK
Sequence of Integrin alpha-V/beta-3 (P06756 891-1048 limits assumed): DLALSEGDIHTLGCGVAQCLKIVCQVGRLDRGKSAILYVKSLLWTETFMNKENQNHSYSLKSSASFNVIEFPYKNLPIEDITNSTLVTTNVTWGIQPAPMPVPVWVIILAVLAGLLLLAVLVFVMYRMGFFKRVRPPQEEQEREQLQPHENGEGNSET

O=C(O)c1cccc(-c2ccc(CN=Nc3nc4nonc4nc3Nc3ccc(F)cc3)o2)c1 [3-(5-{[6-(4-fluoro-phenylamino)-[1,2,5]oxadiazolo[3,4-b]pyrazin-5-yl]-hydrazonomethyl}-furan-2-yl)-benzoic acid]
IC50: > 1000 nM
